In PubChem BioAssay AID256 (DTP/NCI, 2004):
Toxic doses and inconclusive results are not listed. Rule for the calls: active = survival T/C of 150% or more; inactive = T/C below 125% in these data.

Test system: CD2F1 mice, L1210 leukemia ip, survival T/C
Experiment: NCI In Vivo Anticancer Drug Screen. Data for tumor model L1210 Leukemia (intraperitoneal) in CD2F1 (CDF1) mice
Details: higher = longer survival
Summary of the method: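 Activity against a transplanted murine tumor was judged by comparing the compound group with a vehicle group. The outcome in the treated animals was divided by that in the controls.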

[1] = endpoint: mean survival time, dose: 100.0 mg/kg/injection, schedule: Q01DX009 (ip), vehicle: saline
[2] = endpoint: mean survival time, dose: 200.0 mg/kg/injection, schedule: Q01DX009 (ip), vehicle: saline
[3] = endpoint: mean survival time, dose: 400.0 mg/kg/injection, schedule: Q01DX009 (ip), vehicle: saline
[4] = endpoint: mean survival time, dose: 100.0 mg/kg/injection, schedule: Q01DX009 (ip), vehicle: saline with Tween-80
[5] = endpoint: mean survival time, dose: 200.0 mg/kg/injection, schedule: Q01DX009 (ip), vehicle: saline with Tween-80
[6] = endpoint: mean survival time, dose: 100.0 mg/kg/injection, schedule: Q04DX003 (ip), vehicle: saline with Tween-80
[7] = endpoint: mean survival time, dose: 200.0 mg/kg/injection, schedule: Q04DX003 (ip), vehicle: saline with Tween-80
[8] = endpoint: mean survival time, dose: 400.0 mg/kg/injection, schedule: Q04DX003 (ip), vehicle: saline with Tween-80
[9] = endpoint: mean survival time, dose: 100.0 mg/kg/injection, schedule: Q04DX002 (ip), vehicle: saline with Tween-80
[10] = endpoint: mean survival time, dose: 50.0 mg/kg/injection, schedule: Q01DX009 (ip), vehicle: saline
[11] = endpoint: mean survival time, dose: 100.0 mg/kg/injection, schedule: Q04DX003 (ip), vehicle: saline
[12] = endpoint: mean survival time, dose: 200.0 mg/kg/injection, schedule: Q04DX003 (ip), vehicle: saline
[13] = endpoint: mean survival time, dose: 100.0 mg/kg/injection, schedule: Q01DX001 (ip), vehicle: saline
[14] = endpoint: mean survival time, dose: 200.0 mg/kg/injection, schedule: Q01DX001 (ip), vehicle: saline
[15] = endpoint: mean survival time, dose: 400.0 mg/kg/injection, schedule: Q01DX001 (ip), vehicle: saline
[16] = endpoint: mean survival time, dose: 12.5 mg/kg/injection, schedule: Q01DX009 (ip), vehicle: saline
[17] = endpoint: mean survival time, dose: 25.0 mg/kg/injection, schedule: Q01DX009 (ip), vehicle: saline

Measured: T/C

CSc1ccc(NC(=O)C(O)C(O)C(O)C(O)CO)cc1 (centres undefined)
inactive: [1] 103 % of control | [2] 113 % of control | [3] 102 % of control

C=Cc1ccncc1
inactive: endpoint: mean survival time, dose: 12.5 mg/kg/injection, schedule: Q01DX009 (ip), vehicle: saline with Tween-80 91 % of control | endpoint: mean survival time, dose: 25.0 mg/kg/injection, schedule: Q01DX009 (ip), vehicle: saline with Tween-80 95 % of control | endpoint: mean survival time, dose: 50.0 mg/kg/injection, schedule: Q01DX009 (ip), vehicle: saline with Tween-80 98 % of control

C=C1CC23CC1(O)CCC2C12C=CCC(C)(C(=O)O1)C2C3C(=O)O (centres undefined)
inactive: [4] 91 % of control | [5] 95 % of control | endpoint: mean survival time, dose: 400.0 mg/kg/injection, schedule: Q01DX009 (ip), vehicle: saline with Tween-80 91 % of control

BrC1(Br)C2CCCCCCC21 (centres undefined)
inactive: [4] 91 % of control | [6] 87 % of control | [5] 87 % of control | [7] 98 % of control | [8] 96 % of control

CCCCCCCCN(C=O)CCCCCCCC
inactive: endpoint: mean survival time, dose: 25.0 mg/kg/injection, schedule: Q04DX002 (ip), vehicle: saline with Tween-80 93 % of control | endpoint: mean survival time, dose: 50.0 mg/kg/injection, schedule: Q04DX002 (ip), vehicle: saline with Tween-80 96 % of control | [9] 104 % of control

CNC(=O)Oc1ccc(N)cc1
inactive: endpoint: mean survival time, dose: 75.0 mg/kg/injection, schedule: Q01DX001 (ip), vehicle: saline 102 % of control

COCCCN1CCN(c2ccccc2OC)CC1
inactive: [10] 93 % of control | [1] 88 % of control | [11] 98 % of control | [12] 104 % of control

CCCCCCCCCCCC(=O)CCCCC
inactive: endpoint: mean survival time, dose: 100.0 mg/kg/injection, schedule: Q04DX003 (ip), vehicle: other 96 % of control | endpoint: mean survival time, dose: 200.0 mg/kg/injection, schedule: Q04DX003 (ip), vehicle: other 97 % of control | endpoint: mean survival time, dose: 400.0 mg/kg/injection, schedule: Q04DX003 (ip), vehicle: other 97 % of control

ON(C(=S)Nc1ccccc1)c1ccccc1
inactive: [13] 93 % of control | [14] 98 % of control | [15] 97 % of control

Cc1ccc(NC(=O)ON(C)C)cc1
inactive: endpoint: mean survival time, dose: 100.0 mg/kg/injection, schedule: Q04DX002 (ip), vehicle: other 102 % of control

CCCCCCCCCCCCCC(CCCCCCCC)CCCCCCCC
inactive: endpoint: mean survival time, dose: 100.0 mg/kg/injection, schedule: Q01DX001 (ip), vehicle: saline sonified 111 % of control | endpoint: mean survival time, dose: 200.0 mg/kg/injection, schedule: Q01DX001 (ip), vehicle: saline sonified 104 % of control | endpoint: mean survival time, dose: 400.0 mg/kg/injection, schedule: Q01DX001 (ip), vehicle: saline sonified 101 % of control

OC1(C(Cl)(Cl)Cl)CCCCC1
inactive: endpoint: mean survival time, dose: 100.0 mg/kg/injection, schedule: Q01DX009 (ip), vehicle: other 101 % of control | endpoint: mean survival time, dose: 200.0 mg/kg/injection, schedule: Q01DX009 (ip), vehicle: other 103 % of control | endpoint: mean survival time, dose: 400.0 mg/kg/injection, schedule: Q01DX009 (ip), vehicle: other 106 % of control

COC(=O)C1C2CCCN2OC1(C)CO (centres undefined)
inactive: endpoint: median survival time, dose: 7.5 mg/kg/injection, schedule: Q01DX005 (ip), vehicle: saline 98 % of control | endpoint: median survival time, dose: 15.0 mg/kg/injection, schedule: Q01DX005 (ip), vehicle: saline 101 % of control | endpoint: median survival time, dose: 30.0 mg/kg/injection, schedule: Q01DX005 (ip), vehicle: saline 96 % of control | endpoint: median survival time, dose: 60.0 mg/kg/injection, schedule: Q01DX005 (ip), vehicle: saline 106 % of control | endpoint: median survival time, dose: 120.0 mg/kg/injection, schedule: Q01DX005 (ip), vehicle: saline 104 % of control

Brc1cccc(-n2ccnc2)c1
inactive: [6] 102 % of control | [7] 112 % of control

Cc1ccnc([N+](=O)[O-])c1
inactive: [6] 102 % of control | [7] 96 % of control | [8] 97 % of control

CCOc1ccc(-n2c(O)c(N=Nc3ccccc3)c(=O)n(-c3ccc(OC)cc3)c2=S)cc1
inactive: endpoint: mean survival time, dose: 100.0 mg/kg/injection, schedule: Q01DX001 (ip), vehicle: saline with Tween-80 101 % of control | endpoint: mean survival time, dose: 200.0 mg/kg/injection, schedule: Q01DX001 (ip), vehicle: saline with Tween-80 92 % of control | endpoint: mean survival time, dose: 400.0 mg/kg/injection, schedule: Q01DX001 (ip), vehicle: saline with Tween-80 90 % of control

COc1cc(NC2CCCCC2O)c2nc(-c3ccc(Cl)cc3)ccc2c1 (centres undefined)
inactive: endpoint: mean survival time, dose: 50.0 mg/kg/injection, schedule: Q04DX003 (ip), vehicle: saline 110 % of control | [11] 96 % of control | [12] 107 % of control | endpoint: mean survival time, dose: 400.0 mg/kg/injection, schedule: Q04DX003 (ip), vehicle: saline 112 % of control

Fc1ccc(NCCS)cc1
inactive: endpoint: mean survival time, dose: 100.0 mg/kg/injection, schedule: Q01DX009 (ip), vehicle: saline sonified 97 % of control | endpoint: mean survival time, dose: 200.0 mg/kg/injection, schedule: Q01DX009 (ip), vehicle: saline sonified 98 % of control | endpoint: mean survival time, dose: 400.0 mg/kg/injection, schedule: Q01DX009 (ip), vehicle: saline sonified 103 % of control

CCO
inactive: endpoint: mean survival time, dose: 50.0 mg/kg/injection, schedule: Q03HX024 (ip), vehicle: saline 100 % of control | endpoint: mean survival time, dose: 100.0 mg/kg/injection, schedule: Q03HX024 (ip), vehicle: saline 102 % of control | endpoint: mean survival time, dose: 125.0 mg/kg/injection, schedule: Q01DX009 (ip), vehicle: saline 103 % of control | endpoint: mean survival time, dose: 200.0 mg/kg/injection, schedule: Q03HX024 (ip), vehicle: saline 97 % of control | endpoint: mean survival time, dose: 250.0 mg/kg/injection, schedule: Q01DX009 (ip), vehicle: saline 100 % of control | endpoint: mean survival time, dose: 400.0 mg/kg/injection, schedule: Q03HX024 (ip), vehicle: saline 102 % of control | endpoint: mean survival time, dose: 500.0 mg/kg/injection, schedule: Q01DX001 (ip), vehicle: saline 109 % of control | endpoint: mean survival time, dose: 500.0 mg/kg/injection, schedule: Q01DX009 (ip), vehicle: saline 105 % of control | endpoint: mean survival time, dose: 1000.0 mg/kg/injection, schedule: Q01DX001 (ip), vehicle: saline 108 % of control | endpoint: mean survival time, dose: 1000.0 mg/kg/injection, schedule: Q01DX009 (ip), vehicle: saline 103 % of control | endpoint: mean survival time, dose: 2000.0 mg/kg/injection, schedule: Q01DX001 (ip), vehicle: saline 103 % of control | endpoint: mean survival time, dose: 4000.0 mg/kg/injection, schedule: Q01DX001 (ip), vehicle: saline 111 % of control

COC(=O)[C@H]1[C@H]2C[C@@H]3c4[nH]c5cc(OC)ccc5c4CCN3C[C@H]2C[C@@H](OC(=O)/C=C/c2cc(OC)c(OC)c(OC)c2)[C@@H]1OC
inactive: endpoint: mean survival time, dose: 0.63 mg/kg/injection, schedule: Q01DX009 (ip), vehicle: saline sonified 86 % of control | endpoint: mean survival time, dose: 1.25 mg/kg/injection, schedule: Q01DX009 (ip), vehicle: saline sonified 96 % of control | endpoint: mean survival time, dose: 2.5 mg/kg/injection, schedule: Q01DX009 (ip), vehicle: saline sonified 90 % of control | endpoint: mean survival time, dose: 5.0 mg/kg/injection, schedule: Q04DX003 (ip), vehicle: saline with Tween-80 95 % of control | endpoint: mean survival time, dose: 10.0 mg/kg/injection, schedule: Q04DX003 (ip), vehicle: saline with Tween-80 101 % of control | endpoint: mean survival time, dose: 20.0 mg/kg/injection, schedule: Q04DX003 (ip), vehicle: saline with Tween-80 112 % of control

Nc1ccc(CNC(=O)Nc2ccc(S(=O)(=O)F)cc2)cc1
inactive: endpoint: mean survival time, dose: 25.0 mg/kg/injection, schedule: Q04DX003 (ip), vehicle: saline with Tween-80 95 % of control | endpoint: mean survival time, dose: 50.0 mg/kg/injection, schedule: Q04DX003 (ip), vehicle: saline with Tween-80 91 % of control | [6] 110 % of control | [7] 92 % of control | [8] 92 % of control

CCCN(CCC)S(=O)(=O)c1ccc(NC(=O)OC2CCCC2)cc1
inactive: [13] 104 % of control | [14] 106 % of control | [15] 105 % of control

O=[N+]([O-])c1nccn1CC(O)CO (centres undefined)
inactive: [16] 102 % of control | [17] 105 % of control | [10] 102 % of control | [1] 101 % of control | [2] 102 % of control | [3] 103 % of control

CCOP(=O)(OCC)OC(C)C#N (centres undefined)
inactive: [16] 97 % of control | [17] 97 % of control

CC1OC(c2ccccc2)OC1C (centres undefined)
inactive: [6] 94 % of control | [7] 92 % of control | [8] 90 % of control

CCCCOc1ccc(Cl)cc1
inactive: [9] 90 % of control | endpoint: mean survival time, dose: 200.0 mg/kg/injection, schedule: Q04DX002 (ip), vehicle: saline with Tween-80 87 % of control
